Measurements published in patent publication US20180200323A1, “USE OF TETRAPEPTIDE -3 GEKG OR PENTAPEPTIDE -3 GEKGF FOR TREATING DEGENERATIVE JOINT DISEASE” (priority 2017, published 2018).
Entries after “also recorded” stand apart in the source; their conditions may differ.

What was measured:
[1] = tested on: arthrodial cartilage of the knee joint; experiment: Rabbit knee cartilage defect model: observation by bare eyes and histomorphometry; type: in vivo, New Zealand white rabbits
Protocol: (§1) Fifteen (15) healthy adult New Zealand white rabbits were randomly divided into three (3) groups: a normal control group (Group A), a model control group (Group B) and a test group subject to intra-articular injection of a test peptide (Group C), with five (5) rabbits included in each of the groups. Fasting was conducted within four hours before surgical operations. Ketamine (10 mg/kg) and atropine (0.2 mg/kg) were injected in the muscle of each rabbit. After anesthesia took effect, each rabbit was confined to an operating table. An 8 cm-long longitudinal scission was made in the back of each knee before the skin was lifted. From the back of the knee, the articular capsule and synovial were opened. Then, the knee was bent for 90° to expose the cartilage at a lower end of the femur. Two cylindrical cutouts of 3 mm in diameter and 3 mm in depth were made. Coagulation was removed from each of the cutouts. The joint cavity was washed with a sterile saline solution. Stitches were made for each section. After the surgical operation, injection of penicillin was conducted against infection for a week. After five (5) days, each rabbit was able to eat and stand normally.
(§2) Two (2) weeks after the surgical operation, the rabbits of Group A and Group B were not treated, whereas the rabbits of Group C were subject to intra-articular injection of 250 ppm/kg of tetrapeptide-3 GEKG once for every seven (7) days, and the injection lasted for twelve (12) weeks. Articular injection of 0.5 ml of saline was executed, and then 0.2 ml of synovial liquid was collected. The articular capsule was cut and opened, synovial was removed, and an entire tibial joint was taken. Arthropathy in arthrodial cartilage was observed by bare eyes and also via surgical lens. Slices were taken, dyed by hematoxylin and eosin stain (HE Stain) and toluidine blue, and then observed in an optical microscope.

[2] = tested on: synovial liquid; experiment: Rabbit knee cartilage defect model: biochemical indicators (NO, SOD, MDA) in synovial liquid; type: in vivo, New Zealand white rabbits
Description: As used in the present invention, all of the methods for measuring SOD, NO and MDA in synovial liquid and collagen and proteoglycan in extracellular matrix of cartilage have been known and conventionally used in the art.
as §1, §2

[3] = tested on: cartilage cells of the growth plate; experiment: Cultivated cartilage cells: DNA content, collagen and proteoglycan production; type: cell-based, rabbits; conditions: 250 ppm
Protocol: Firstly, cartilage cells of the growth plate of the same rabbits were taken and continuously cultivated. The cultivated cells were divided into three groups. In Group I, only 250 ppm of tetrapeptide-3 GEKG was added. In Group II, only 100 ng/ml of collagen was added. In Group III, 250 ppm of tetrapeptide-3 GEKG and 100 ng/ml of collagen were added. A negative control group was also used. After new tissues of cartilage grew at a lower portion of a centrifuge tube, the new tissues were transferred to a 24-well plate for continuing cultivation, wherein the culture medium was replaced for every 2 days. During the cultivation, samples were collected after three (3), seven (7) and fourteen (14) days, and then were analyzed.
For the histological and histochemical measurements, samples were collected, and HE dying and immunochemical measurement (S-P method) were executed.
The content of DNA in the cells of cartilage was determined by the method of Hoechst 33258.
Extracellular matrix of cartilage primarily comprises collagen and proteoglycan composed of glycosaminoglycan and core protein, in addition to water. The content of the matrix and its status of the metabolism were quantitatively analyzed by determining a level of the collagen and proteoglycan in the new tissues of cartilage.
The synthesis of the collagen of the cartilage is measured by the hydroxyproline method. Because the content of hydroxyproline in the collagen was substantially constant (about 10% by weight), an amount of hydroxyproline could be used to analyze the amount of the collagen of the cartilage by using a commercial kit including the hydroxyproline reagent. The content of the collagen in the samples was calculated.

[4] = Group C vs model control group B
[5] = Group C: intra-articular injection of 250 ppm/kg once every 7 days for 12 weeks

tetrapeptide-3 GEKG
Morphosis of the arthrodial cartilage compared with Group B [1, 4]: significant improvement | Histomorphometric observation of repaired tissues ([1]; Group C, HE and toluidine blue stain, optical microscope): the repaired tissues were not substantially different from the normal tissues of the knee joint; also recorded: considerably repaired the damaged tissues of cartilage | Repair of knee joint injuries observed by bare eyes ([1]; Group C, after 12 weeks of intra-articular injection, 250 ppm/kg): the injuries were completely repaired | MDA level in synovial liquid (change in words) [2, 4]: considerably reduced | SOD level in synovial liquid (change in words) [2, 4]: considerably increased | MDA level in synovial liquid [2, 5]: 13.12 ± 2.28 c/mol · L^−1 | NO level in synovial liquid [2, 5]: 20.76 ± 2.88 c/mol · L^−1 | SOD level in synovial liquid [2, 5]: 6.60 ± 1.37 c/mol · L^−1 | Hyperosteogeny of the cells of the cartilage ([3]; samples after 3, 7 and 14 days): considerable hyperosteogeny | Content of DNA of the cells of the cartilage (Hoechst 33258) ([3]; vs control group, FIG. 1): statistically different from that of the control group | Production of collagen of extracellular matrix of cartilage (hydroxyproline method) ([3]; vs control group, FIG. 2): considerably increased | Production of proteoglycan of extracellular matrix of cartilage ([3]; vs control group, FIG. 3): considerably increased
